Assay results as given in PubChem BioAssay (NCI).
Several values for one entry are separate records, joined by “and”; a condition that tells them apart may be missing. Equal entries are not always repeated.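 Test compounds were applied to cells in 96-well plates for 48 hours at 5 doses. Abbreviation: GI50, concentration required for 50% inhibition of growth. TGI: total growth inhibition.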

How the values were obtained:
Assay in all cases: NCI-60 cell line screen, 48 h
[1] = test system: EKVX NSCLC
[2] = test system: KM12 colon
[3] = test system: MOLT-4 leukemia
[4] = test system: NCI-H226 lung
[5] = test system: NCI-H460 lung
[6] = test system: NCI/ADR-RES ovarian
[7] = test system: SF-539 CNS
[8] = test system: SK-MEL-28 melanoma
[9] = test system: U251 CNS
[10] = test system: SR leukemia
[11] = test system: M14 melanoma
[12] = test system: MDA-MB-435

Row | SMILES | TGI [1] [µM] | GI50 [2] | TGI [2] [µM] | GI50 [3] [µM] | TGI [3] [µM] | GI50 [4] [µM] | TGI [4] [µM] | GI50 [5] | TGI [5] [µM] | GI50 [6] [µM] | TGI [6] [µM] | GI50 [7] | TGI [7] [µM] | GI50 [8] [µM] | TGI [8] [µM] | GI50 [9] [µM] | TGI [9] [µM] | TGI [10] [µM] | TGI [11] [µM] | TGI [12] [µM]
1 | COc1cc([C@@H]2c3cc4c(cc3C[C@H]3COC(=O)[C@@H]32)OCO4)cc(OC)c1OC | > 50 | 0.00389 µM and 0.005 µM | > 50 | 0.00428 | 0.12 | 0.00524 | 0.891 | 0.00327 µM and < 0.005 µM | < 0.005 | 0.00917 | 0.202 | 0.00279 µM and 0.0062 µM | 0.00812 | 0.00645 | > 50 | 0.00392 | 1.5 |  |  | 
2 | CC(C)=CC1C(C(=O)O)C1(C)C (stereo not given) | > 750 |  | > 750 |  | > 750 |  | > 750 |  | > 750 |  | > 750 |  | > 750 |  | > 750 |  | > 750 |  |  | 
3 | COc1ccc(CNc2nc3ccc(C(F)(F)F)cc3nc2-c2ccccc2)cc1OC | > 100 |  |  |  | > 100 |  | > 100 |  | > 100 |  |  |  | > 100 |  | > 100 |  | > 100 | > 100 |  | 
4 | COc1cc2c(cc1OC)C(=O)/C(=C/c1cc(C)c(O)c(C)c1)C2 | > 100 |  |  |  | > 100 |  | > 59.7 |  | > 100 |  | > 100 |  | > 100 |  | > 100 |  | > 100 | > 100 | > 100 | 
5 | O=C(CCc1ccc(O)cc1)c1c(O)cc(O)cc1OC1OC(CO)C(O)C(O)C1O (stereo not given) | > 100 |  | > 100 |  |  |  |  |  |  |  | > 100 |  | > 100 |  | > 100 |  |  |  | > 100 | > 100
6 | CC(=O)/C(=C/n1c(=S)sc2ccccc21)C(=O)Nc1ccccc1C | > 100 |  | > 100 |  | > 100 |  | > 100 |  | > 100 |  | > 100 |  | > 100 |  | > 100 |  | > 100 |  | > 100 | > 100
7 | Cc1nc2cc(C(F)(F)F)ccc2[nH]c1=O | > 100 |  | > 100 |  | > 100 |  | > 100 |  | > 100 |  | > 100 |  | > 100 |  | > 100 |  | > 100 |  | > 100 | > 100
8 | CCOC(=O)C(=O)N1C(C)=C(C(=O)OCC)CC(C(=O)OCC)=C1C | > 100 |  | > 100 |  | > 100 |  |  |  | > 100 |  |  |  | > 100 |  | > 100 |  |  | > 100 | > 100 | > 100
9 | O=C1N[C@@H]2c3c(csc3Br)C(=O)[C@@H]2O1 | > 100 |  | > 100 |  | 52.4 |  |  |  | > 100 |  | > 100 |  | > 100 |  | > 100 |  | 69.2 | 74.1 | > 100 | 46.9
10 | Cc1cccc(C[C@@]2(SCc3ccccc3)C(C)(C)[C@@H]3CC[C@@]2(C)C3)n1 | 40.2 |  | 36.9 |  | 27.3 |  |  |  | 31.3 |  | 30.2 |  | 55.1 |  | 45.3 |  | 30.2 | 31.9 | 46.2 | 78.3
11 | O=C1C(Cl)N(c2ccccc2)C1c1c[nH]c2ccccc12 (stereo not given) | > 100 |  | > 100 |  | > 100 |  |  |  | > 100 |  |  |  | > 100 |  | > 100 |  | > 100 | > 100 | > 100 | 
12 | COC(=O)C1CC(C=[N+](C)C)=C(SC)N1 (stereo not given) | > 100 |  | > 100 |  | > 100 |  |  |  | > 100 |  | > 100 |  |  |  | > 100 |  | > 100 | > 100 | > 100 | > 100
13 | O=C1/C(=C/c2ccc(F)cc2)CNC/C1=C\c1ccc(F)cc1 | 4.64 |  | 1.59 |  | > 40.5 |  | 15.3 |  | 2.36 |  |  |  | 2.39 |  | 2.68 |  | 1.39 | > 100 | 4.35 | 7.51
14 | O=C(O)CNC(=O)c1ccc([As](=O)(O)O)cc1 | > 100 |  | > 100 |  | > 100 |  | > 100 |  | > 100 |  | > 100 |  |  |  | > 100 |  | > 100 |  | > 100 | > 100
15 | COC1C=CC23c4cc5c(cc4C(O)OC2CN(C)C3C1)OCO5 (stereo not given) | 32.9 |  | 13.4 |  | 5.32 |  | 5.36 |  | 56.7 |  |  |  | 3.65 |  |  |  |  | 4.59 | 3.15 | 
16 | CC(=O)CC(=O)c1cc2c(=O)oc(C)cc2oc1=O | > 37.5 |  | > 37.5 |  | > 37.5 |  | > 37.5 |  | > 37.5 |  | > 37.5 |  | > 37.5 |  | > 37.5 |  | > 37.5 | > 37.5 | > 37.5 | 
17 | Cc1cc2cccc(Cl)c2nc1C(=O)c1ccccc1 |  |  | > 100 |  |  |  | > 100 |  |  |  |  |  | > 100 |  | > 100 |  | > 100 | > 100 | > 100 | 
18 | Cc1ccc(C2=Nc3c(c(C)nn3-c3ccccc3)N=C(C(=O)O)C2)cc1 | > 10 |  | > 10 |  | > 10 |  | > 10 |  | > 10 |  | > 10 |  | > 10 |  | > 10 |  | > 10 |  | > 10 | > 10
19 | O=C(O)c1ccc(NS(=O)(=O)Cc2ccccc2)cc1 | > 100 |  | > 100 |  | > 100 |  |  |  | > 100 |  | > 100 |  | > 100 |  | > 100 |  | > 100 | > 100 | > 100 | > 100
20 | COc1cccc(C2c3cc4c(cc3OC(N3CCCC3)C2C)OCO4)c1OC (stereo not given) | 97.8 |  | 15.1 |  | 10.7 |  |  |  | 12.5 |  | 15 |  | 16.2 |  |  |  |  | 15.2 | 23.8 | 14.3
21 | C=CCCCC12CCCc3cccc(c31)NC2=O (stereo not given) | 37.3 |  | 35.6 |  | 55.1 |  | 40.3 |  | 33.8 |  |  |  | 47.4 |  |  |  | 50.3 | > 100 | 31.1 | 
